Experimental data from the supplement of paper PMC10307832.

Key:
Assay in all cases: relative viability (nuclei count vs DMSO), 5 days (fraction); higher = more cells survive
[1] = compound: CC1=CC(=CC=C1)NC2=NC(=CS2)C3=CC=NC=C3 + CS(=O)(=O)N1CCN(Cc2cc3nc(-c4cccc5[nH]ncc45)nc(N4CCOCC4)c3s2)CC1 [Pictilisib] (partner 1 µM)
Procedure, shortened: (§1)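 Dosing by pin tool came one day after lung cancer cell lines were seeded in 1536-well plates, using either one drug or a fixed anchor-drug dose plus five library-drug doses (not always all listed) in √10 steps. After 5 days, nuclei were counted on 4× images. Relative viability is treated-well nuclei count divided by vehicle-well nuclei count, and values are medians of duplicate plates.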

Masitinib + Phenformin = compound: Cc1ccc(NC(=O)c2ccc(CN3CCN(C)CC3)cc2)cc1Nc1nc(-c2cccnc2)cs1 [Masitinib] + N=C(N)NC(=N)NCCc1ccccc1 [Phenformin] (partner 250 µM)
Procedure, shortened: as §1

[2] = compound: CC1=CC(=CC=C1)NC2=NC(=CS2)C3=CC=NC=C3 + NC(=O)Nc1cc(-c2cccc(F)c2)sc1C(=O)N[C@H]1CCCNC1 [AZD7762] (partner 0.2 µM)
Procedure, shortened: as §1

[3] = compound: CC1=CC(=CC=C1)NC2=NC(=CS2)C3=CC=NC=C3 + CC(=O)Nc1cccc(-n2c(=O)n(C3CC3)c(=O)c3c(Nc4ccc(I)cc4F)n(C)c(=O)c(C)c32)c1 [Trametinib] (partner 0.02 µM)
Procedure, shortened: as §1

Row | Cell Line | relative viability ([1]; first compound 0.08 µM) | relative viability ([1]; first compound 0.253 µM) | relative viability ([1]; first compound 0.8 µM) | relative viability ([1]; first compound 2.53 µM) | relative viability ([1]; first compound 8 µM) | relative viability (Masitinib + Phenformin; first compound 0.01 µM) | relative viability (Masitinib + Phenformin; first compound 0.03162 µM) | relative viability (Masitinib + Phenformin; first compound 0.1 µM) | relative viability (Masitinib + Phenformin; first compound 0.3162 µM) | relative viability (Masitinib + Phenformin; first compound 1 µM) | relative viability ([2]; first compound 0.08 µM) | relative viability ([2]; first compound 0.253 µM) | relative viability ([2]; first compound 0.8 µM) | relative viability ([2]; first compound 2.53 µM) | relative viability ([2]; first compound 8 µM) | relative viability ([3]; first compound 0.08 µM) | relative viability ([3]; first compound 0.253 µM) | relative viability ([3]; first compound 0.8 µM) | relative viability ([3]; first compound 2.53 µM) | relative viability ([3]; first compound 8 µM)
1 | NCI-H322M | 0.446 | 0.452 | 0.372 | 0.495 | 0.622 | 0.789 | 0.799 | 0.741 | 0.75 | 0.715 | 0.46 | 0.549 | 0.551 | 0.553 | 0.455 | 0.482 | 0.534 | 0.509 | 0.552 | 0.52
2 | LU99A |  | 0.309 | 0.306 | 0.368 | 0.326 | 0.868 | 0.807 | 0.859 | 0.856 | 0.703 | 0.36 | 0.326 | 0.361 | 0.374 | 0.442 | 0.521 | 0.575 | 0.509 | 0.525 | 0.477
3 | NCI-H2126 | 0.416 | 0.443 | 0.449 | 0.425 | 0.436 | 0.515 | 0.548 | 0.552 | 0.507 | 0.503 | 0.967 | 1.09 | 1.06 | 0.95 | 0.981 | 0.509 | 0.528 | 0.426 | 0.476 | 0.485
4 | LC-2-ad | 0.365 | 0.366 | 0.478 | 0.369 | 0.436 | 0.517 | 0.573 | 0.622 | 0.627 | 0.557 | 0.823 | 0.845 | 0.911 | 0.835 | 0.821 | 0.862 | 0.881 | 0.826 | 0.839 | 0.8
5 | NCI-H1975 | 0.229 | 0.216 | 0.188 | 0.199 | 0.191 | 0.405 | 0.402 | 0.422 |  | 0.408 | 0.579 | 0.532 | 0.591 | 0.462 | 0.439 | 0.294 | 0.274 | 0.335 | 0.263 | 0.193
6 | NCI-H1944 | 0.29 | 0.309 | 0.327 | 0.304 | 0.297 |  | 0.196 |  | 0.196 | 0.186 | 0.401 | 0.552 | 0.706 | 0.527 | 0.47 | 0.345 | 0.409 | 0.39 | 0.362 | 0.357
7 | NCI-H2085 | 0.5 | 0.434 | 0.453 | 0.426 | 0.447 | 0.631 | 0.717 | 0.771 | 0.778 | 0.657 | 0.904 | 1.01 | 0.847 | 0.993 | 0.575 | 0.513 | 0.376 | 0.428 | 0.471 | 0.426
8 | PC-3 [JPC-3] | 0.575 | 0.609 | 0.617 | 0.629 | 0.719 | 0.47 | 0.429 | 0.47 | 0.46 | 0.37 | 0.711 |  | 1.11 | 0.712 | 0.663 | 0.602 |  | 0.658 | 0.606 | 0.572
9 | NCI-H2087 | 0.616 | 0.812 | 0.851 | 0.885 | 0.77 | 0.347 | 0.393 | 0.534 | 0.5 | 0.393 | 1.41 | 1.29 | 1.14 | 1.43 | 1.17 | 0.178 | 0.195 | 0.246 | 0.164 | 0.181
